From the supplement of paper PMC10307832

Experiments:
Assay in all cases: relative viability (nuclei count vs DMSO), 5 days (fraction); higher = more cells survive
ABC-1 = tested on: ABC-1
Procedure, shortened: (§1)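 For relative viability, nuclei counts in treated wells were divided by those in vehicle wells. Lung cancer cell lines had been pin-tool dosed in 1536-well plates the day after seeding and cultured for 5 days, then fixed and stained in one step (final 0.05% Triton X-100, 1% formaldehyde, 1 ug/ml Hoechst) and imaged at 4×. Doses were one drug alone or a fixed anchor-drug dose plus five library-drug doses (not always all listed) in √10 steps, and values are duplicate-plate medians.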

BEN = tested on: BEN
Procedure, shortened: as §1

EPLC-272H = tested on: EPLC-272H
Procedure, shortened: as §1

HCC-827 = tested on: HCC-827
Procedure, shortened: as §1

HOP-62 = tested on: HOP-62
Procedure, shortened: as §1

LU99A = tested on: LU99A
Procedure, shortened: as §1

NCI-H1355 = tested on: NCI-H1355
Procedure, shortened: as §1

NCI-H1666 = tested on: NCI-H1666
Procedure, shortened: as §1

NCI-H1975 = tested on: NCI-H1975
Procedure, shortened: as §1

NCI-H2170 = tested on: NCI-H2170
Procedure, shortened: as §1

NCI-H23 = tested on: NCI-H23
Procedure, shortened: as §1

NCI-H2405 = tested on: NCI-H2405
Procedure, shortened: as §1

NCI-H3122 = tested on: NCI-H3122
Procedure, shortened: as §1

NCI-H322M = tested on: NCI-H322M
Procedure, shortened: as §1

NCI-H358 = tested on: NCI-H358
Procedure, shortened: as §1

NCI-H520 = tested on: NCI-H520
Procedure, shortened: as §1

NCI-H596 = tested on: NCI-H596
Procedure, shortened: as §1

NCI-H647 = tested on: NCI-H647
Procedure, shortened: as §1

NCI-H727 = tested on: NCI-H727
Procedure, shortened: as §1

NCI-H838 = tested on: NCI-H838
Procedure, shortened: as §1

PC-14 = tested on: PC-14
Procedure, shortened: as §1

UMC-11 = tested on: UMC-11
Procedure, shortened: as §1

## Cc1cnc(-c2cnc(NCCNc3ccc(C#N)cn3)nc2-c2ccc(Cl)cc2Cl)[nH]1 + COc1cc2c(Oc3ccc(NC(=O)C4(C(=O)Nc5ccc(F)cc5)CC4)cc3F)ccnc2cc1OCCCN1CCOCC1 [Foretinib] (partner 0.25 µM)
ABC-1; first compound 0.08 µM
  relative viability: 1.32
ABC-1; first compound 0.253 µM
  relative viability: 1.31
ABC-1; first compound 0.8 µM
  relative viability: 1.34
ABC-1; first compound 2.53 µM
  relative viability: 1.2
BEN; first compound 0.08 µM
  relative viability: 0.857
BEN; first compound 0.253 µM
  relative viability: 0.68
BEN; first compound 0.8 µM
  relative viability: 0.746
BEN; first compound 2.53 µM
  relative viability: 0.69
EPLC-272H; first compound 0.08 µM
  relative viability: 0.737
EPLC-272H; first compound 0.253 µM
  relative viability: 0.617
EPLC-272H; first compound 0.8 µM
  relative viability: 0.692
EPLC-272H; first compound 2.53 µM
  relative viability: 0.747
HCC-827; first compound 0.08 µM
  relative viability: 1.04
HCC-827; first compound 0.8 µM
  relative viability: 0.983
HCC-827; first compound 2.53 µM
  relative viability: 0.976
HOP-62; first compound 0.08 µM
  relative viability: 1.05
HOP-62; first compound 0.253 µM
  relative viability: 1.02
HOP-62; first compound 0.8 µM
  relative viability: 1.12
HOP-62; first compound 2.53 µM
  relative viability: 0.947
LU99A; first compound 0.08 µM
  relative viability: 0.908
LU99A; first compound 0.253 µM
  relative viability: 0.701
LU99A; first compound 0.8 µM
  relative viability: 0.83
LU99A; first compound 2.53 µM
  relative viability: 0.765
NCI-H1355; first compound 0.08 µM
  relative viability: 0.901
NCI-H1355; first compound 0.253 µM
  relative viability: 0.867
NCI-H1355; first compound 0.8 µM
  relative viability: 0.97
NCI-H1355; first compound 2.53 µM
  relative viability: 0.96
NCI-H1666; first compound 0.08 µM
  relative viability: 0.934
NCI-H1666; first compound 0.253 µM
  relative viability: 0.906
NCI-H1666; first compound 0.8 µM
  relative viability: 0.995
NCI-H1666; first compound 2.53 µM
  relative viability: 0.924
NCI-H1975; first compound 0.08 µM
  relative viability: 0.928
NCI-H1975; first compound 0.253 µM
  relative viability: 0.911
NCI-H1975; first compound 0.8 µM
  relative viability: 0.771
NCI-H1975; first compound 2.53 µM
  relative viability: 0.573
NCI-H2170; first compound 0.08 µM
  relative viability: 0.953
NCI-H2170; first compound 0.253 µM
  relative viability: 0.906
NCI-H2170; first compound 0.8 µM
  relative viability: 0.965
NCI-H2170; first compound 2.53 µM
  relative viability: 0.997
NCI-H23; first compound 0.08 µM
  relative viability: 0.938
NCI-H23; first compound 0.253 µM
  relative viability: 1
NCI-H23; first compound 0.8 µM
  relative viability: 0.983
NCI-H23; first compound 2.53 µM
  relative viability: 1
NCI-H2405; first compound 0.08 µM
  relative viability: 1.04
NCI-H2405; first compound 0.253 µM
  relative viability: 0.974
NCI-H2405; first compound 0.8 µM
  relative viability: 1.05
NCI-H2405; first compound 2.53 µM
  relative viability: 0.845
NCI-H3122; first compound 0.08 µM
  relative viability: 0.943
NCI-H3122; first compound 0.8 µM
  relative viability: 0.935
NCI-H3122; first compound 2.53 µM
  relative viability: 0.914
NCI-H322M; first compound 0.08 µM
  relative viability: 1.07
NCI-H322M; first compound 0.253 µM
  relative viability: 0.856
NCI-H322M; first compound 0.8 µM
  relative viability: 1
NCI-H322M; first compound 2.53 µM
  relative viability: 1.2
NCI-H358; first compound 0.08 µM
  relative viability: 0.735
NCI-H358; first compound 0.253 µM
  relative viability: 0.597
NCI-H358; first compound 0.8 µM
  relative viability: 0.404
NCI-H358; first compound 2.53 µM
  relative viability: 0.509
NCI-H520; first compound 0.08 µM
  relative viability: 0.71
NCI-H520; first compound 0.253 µM
  relative viability: 0.593
NCI-H520; first compound 0.8 µM
  relative viability: 0.918
NCI-H520; first compound 2.53 µM
  relative viability: 1.04
NCI-H596; first compound 0.08 µM
  relative viability: 0.929
NCI-H596; first compound 0.253 µM
  relative viability: 0.776
NCI-H596; first compound 0.8 µM
  relative viability: 0.872
NCI-H596; first compound 2.53 µM
  relative viability: 0.827
NCI-H647; first compound 0.08 µM
  relative viability: 1.35
NCI-H647; first compound 0.253 µM
  relative viability: 1.03
NCI-H647; first compound 0.8 µM
  relative viability: 0.938
NCI-H647; first compound 2.53 µM
  relative viability: 1.15
NCI-H727; first compound 0.08 µM
  relative viability: 0.943
NCI-H727; first compound 0.253 µM
  relative viability: 0.918
NCI-H727; first compound 0.8 µM
  relative viability: 0.732
NCI-H727; first compound 2.53 µM
  relative viability: 0.898
NCI-H838; first compound 0.08 µM
  relative viability: 1.04
NCI-H838; first compound 0.253 µM
  relative viability: 1.02
NCI-H838; first compound 0.8 µM
  relative viability: 1.15
NCI-H838; first compound 2.53 µM
  relative viability: 1.21
PC-14; first compound 0.08 µM
  relative viability: 0.978
PC-14; first compound 0.253 µM
  relative viability: 0.852
PC-14; first compound 0.8 µM
  relative viability: 0.941
PC-14; first compound 2.53 µM
  relative viability: 0.894
UMC-11; first compound 0.08 µM
  relative viability: 0.986
UMC-11; first compound 0.253 µM
  relative viability: 0.999
UMC-11; first compound 0.8 µM
  relative viability: 1.11
UMC-11; first compound 2.53 µM
  relative viability: 1
